Source: ChEMBL document CHEMBL4049386, “Discovery of an Inhibitor of the Proteasome Subunit Rpn11” (J Med Chem, 2017)

Key:
[1] = target: T1, 26S proteasome non-ATPase regulatory subunit 14 (Homo sapiens, UniProt O00487); assay: Inhibition of 26S proteasome regulatory subunit RPN11 deubiquitinating activity in human erythrocytes using Ub4-pepOG protein substrate preincubated for 1 hr followed by substrate addition measured after 80 mins by fluorescence polarization assay
[2] = target: T1, 26S proteasome non-ATPase regulatory subunit 14; assay: Inhibition of 26S proteasome regulatory subunit RPN11 deubiquitinating activity in beta5 inhibitor MG132 pretreated human HeLa cells expressing UbG76V-GFP assessed as reduction in UbG76V-GFP degradation rate by fluorescence microscopic method; type: cell-based
[3] = Aqueous solubility of the compound; type: physicochemical; conditions: buffer
[4] = target: COP9 signalosome complex subunit 5 (Homo sapiens, UniProt Q92905); assay: Inhibition of CSN5 (unknown origin) using SCFskp2-Nedd8OG as substrate after 1 hr by fluorescence polarization assay
STAM-binding protein = target: T2, STAM-binding protein (Homo sapiens, UniProt O95630); assay: Inhibition of AMSH (unknown origin) using DiUbK63TAMRA as substrate by fluorescence assay
T2 sequence (O95630 whole entry): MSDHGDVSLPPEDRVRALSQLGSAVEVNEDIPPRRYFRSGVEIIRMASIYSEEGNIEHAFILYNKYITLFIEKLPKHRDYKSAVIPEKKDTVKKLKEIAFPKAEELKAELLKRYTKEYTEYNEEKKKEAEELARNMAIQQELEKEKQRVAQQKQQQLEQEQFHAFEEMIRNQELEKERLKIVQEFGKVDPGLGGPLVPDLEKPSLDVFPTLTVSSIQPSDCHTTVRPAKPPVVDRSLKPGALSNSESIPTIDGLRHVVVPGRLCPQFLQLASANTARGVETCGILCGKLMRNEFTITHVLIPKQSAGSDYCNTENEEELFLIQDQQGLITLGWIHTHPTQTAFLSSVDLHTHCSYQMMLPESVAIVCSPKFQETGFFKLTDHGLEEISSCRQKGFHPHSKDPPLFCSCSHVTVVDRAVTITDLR

HCT-116 = assay: cells; conditions: Homo sapiens, HCT-116, 72 h
Description: Antiproliferative activity against human HCT116 cells after 72 hrs by Cell Titer-Glo assay

[5] = target: 72 kDa type IV collagenase (Homo sapiens, UniProt P08253); assay: Inhibition of recombinant human MMP2 catalytic domain (Tyr110 to Asp452 residues) expressed in yeast using Mca-Pro-Leu-Gly-Leu-Dpa-Ala-Arg-NH2.AcOH as substrate preincubated for 30 mins followed by substrate addition measured every minute for 20 mins by fluorescence assay
Sequence of 72 kDa type IV collagenase (P08253 whole entry, the tested form may be a part): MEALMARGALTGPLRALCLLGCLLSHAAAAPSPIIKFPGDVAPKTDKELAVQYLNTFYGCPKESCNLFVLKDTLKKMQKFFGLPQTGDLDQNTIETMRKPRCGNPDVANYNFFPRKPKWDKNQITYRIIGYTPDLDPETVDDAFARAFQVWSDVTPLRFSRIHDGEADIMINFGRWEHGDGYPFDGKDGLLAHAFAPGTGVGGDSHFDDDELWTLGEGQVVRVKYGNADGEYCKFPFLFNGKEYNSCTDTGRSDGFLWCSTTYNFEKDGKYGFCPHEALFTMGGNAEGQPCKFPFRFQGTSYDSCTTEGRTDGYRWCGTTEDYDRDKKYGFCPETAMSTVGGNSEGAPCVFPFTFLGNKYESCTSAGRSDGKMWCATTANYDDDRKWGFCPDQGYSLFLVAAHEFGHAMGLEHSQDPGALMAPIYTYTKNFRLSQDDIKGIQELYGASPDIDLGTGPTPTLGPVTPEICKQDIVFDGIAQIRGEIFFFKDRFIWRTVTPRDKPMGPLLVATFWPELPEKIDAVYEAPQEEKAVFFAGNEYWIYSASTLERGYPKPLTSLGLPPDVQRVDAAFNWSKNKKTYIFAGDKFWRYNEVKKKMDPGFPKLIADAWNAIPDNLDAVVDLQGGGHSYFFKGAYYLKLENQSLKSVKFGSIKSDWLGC

Sequence of COP9 signalosome complex subunit 5 (Q92905 whole entry, one chain of several): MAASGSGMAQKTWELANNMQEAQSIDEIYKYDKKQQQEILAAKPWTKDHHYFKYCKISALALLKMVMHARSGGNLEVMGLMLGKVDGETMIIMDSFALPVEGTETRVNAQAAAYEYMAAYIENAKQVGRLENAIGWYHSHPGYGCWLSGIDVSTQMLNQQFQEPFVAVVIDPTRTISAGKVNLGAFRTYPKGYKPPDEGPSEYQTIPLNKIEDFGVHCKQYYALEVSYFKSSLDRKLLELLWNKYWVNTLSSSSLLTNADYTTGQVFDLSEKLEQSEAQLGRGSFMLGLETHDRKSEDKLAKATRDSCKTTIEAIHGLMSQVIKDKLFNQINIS
T1 sequence (O00487 whole entry): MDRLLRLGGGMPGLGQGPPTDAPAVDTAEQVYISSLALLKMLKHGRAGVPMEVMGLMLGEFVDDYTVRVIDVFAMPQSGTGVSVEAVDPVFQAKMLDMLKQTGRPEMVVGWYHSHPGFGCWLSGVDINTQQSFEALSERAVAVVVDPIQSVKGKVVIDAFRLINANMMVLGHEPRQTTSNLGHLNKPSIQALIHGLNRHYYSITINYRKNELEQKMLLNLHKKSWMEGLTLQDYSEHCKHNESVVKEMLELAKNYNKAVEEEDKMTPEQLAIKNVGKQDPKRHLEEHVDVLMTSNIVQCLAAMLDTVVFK

Row | SMILES | IC50 [1] | IC50 [2] | solubility [3] | IC50 [4] | IC50 (STAM-binding protein) | IC50 (HCT-116) | IC50 [5]
1 | O=C(NCCc1nccs1)c1cnc2c(O)cccc2c1 | > 40 µM | > 100 µM | – | > 100 µM | > 100 µM | – | –
2 | Sc1cccc2ncccc12 | > 100 µM | – | – | – | – | > 100 µM | –
3 | Cc1ccc2cccc(S)c2n1 | > 100 µM | – | – | > 100 µM | – | > 50 µM | > 200 µM
4 | Cc1cccc2cccnc12 | > 100 µM | – | – | – | – | > 100 µM | –
5 | Oc1cccc2cccnc12 [OXYQUINOLINE] | > 100 µM | – | – | – | – | 6 µM | –
6 | CSc1cccc2cc(C(=O)NCCc3nccs3)cnc12 | > 40 µM | > 100 µM | – | > 100 µM | > 100 µM | – | –
7 | COC(=O)c1ccc2cccc(SSc3cccc4ccc(C(=O)OC)nc34)c2n1 | > 50 µM | – | – | – | – | – | –
8 | O=C(NCC1CCCO1)c1cnc2c(SSc3cccc4cc(C(=O)NCC5CCCO5)cnc34)cccc2c1 (stereo not given) | – | 1 µM | Soluble | – | – | – | –
9 | COC(=O)c1ccnc2c(SSc3cccc4c(C(=O)OC)ccnc34)cccc12 | 1 µM | – | – | – | – | – | –
10 | Sc1cccc2ccccc12 | > 100 µM | – | – | – | – | > 100 µM | –
11 | O=C(NCc1ccco1)c1cnc2c(SSc3cccc4cc(C(=O)NCc5ccco5)cnc34)cccc2c1 | – | 1 µM | Soluble | < 0.5 µM | – | – | –
12 | O=C(O)c1ccnc2c(SSc3cccc4c(C(=O)O)ccnc34)cccc12 | 1.3 µM | – | – | – | – | – | –
13 | O=C(NCCc1cccs1)c1cnc2c(SSc3cccc4cc(C(=O)NCCc5cccs5)cnc34)cccc2c1 | – | 5 µM | Soluble | – | – | – | –
14 | O=C(NCc1ccccc1)c1cnc2c(SSc3cccc4cc(C(=O)NCc5ccccc5)cnc34)cccc2c1 | – | > 10 µM | – | – | > 10 µM | – | –
15 | CSc1cccc2cccnc12 | > 100 µM | – | – | – | – | > 100 µM | –
16 | O=C(NCc1cccs1)c1cnc2c(SSc3cccc4cc(C(=O)NCc5cccs5)cnc34)cccc2c1 | – | 5 µM | Soluble | – | – | – | –
17 | Nc1cccc2cccnc12 [8-AMINOQUINOLINE] | > 100 µM | – | – | – | – | – | –

Further lines, results first:

Row | IC50 [1] | IC50 [2] | solubility [3] | IC50 [4] | IC50 (STAM-binding protein) | IC50 (HCT-116) | IC50 [5] | SMILES
18 | 1.1 µM | – | – | – | – | – | – | O=C(O)c1cnc2c(SSc3cccc4cc(C(=O)O)cnc34)cccc2c1
19 | < 0.2 µM | > 10 µM | Insoluble | – | – | – | – | COc1ccc(CNC(=O)c2cnc3c(SSc4cccc5cc(C(=O)NCc6ccc(OC)cc6)cnc45)cccc3c2)cc1
20 | – | > 10 µM | – | > 100 µM | 26 µM | – | – | O=C(NCCN1CCOCC1)c1cnc2c(SSc3cccc4cc(C(=O)NCCN5CCOCC5)cnc34)cccc2c1
21 | > 100 µM | – | – | – | – | – | – | O=C(NCc1cccs1)c1ccc2cccc(SSc3cccc4ccc(C(=O)NCc5cccs5)nc34)c2n1
22 | – | – | Soluble | 24 µM | – | – | – | O=C(NCc1nccs1)c1cnc2c(SSc3cccc4cc(C(=O)NCc5nccs5)cnc34)cccc2c1
23 | > 2 µM | > 0.3 µM | – | > 100 µM | 2.2 µM | – | – | COC(=O)CNC(=O)c1cnc2c(SSc3cccc4cc(C(=O)NCC(=O)OC)cnc34)cccc2c1
24 | – | > 10 µM | Insoluble | – | < 0.2 µM | – | – | O=C(NCc1ccc2c(c1)OCO2)c1cnc2c(SSc3cccc4cc(C(=O)NCc5ccc6c(c5)OCO6)cnc34)cccc2c1
25 | 3.2 µM | > 10 µM | Soluble | > 100 µM | – | – | – | O=C(NCc1cccnc1)c1cnc2c(SSc3cccc4cc(C(=O)NCc5cccnc5)cnc34)cccc2c1
26 | 2.6 µM | > 10 µM | Soluble | 15 µM | 5 µM | – | – | O=C(Nc1ncco1)c1cnc2c(SSc3cccc4cc(C(=O)Nc5ncco5)cnc34)cccc2c1
27 | > 5 µM | > 10 µM | – | > 30 µM | 3.5 µM | – | – | O=C(CNC(=O)c1cnc2c(SSc3cccc4cc(C(=O)NCC(=O)NCC(=O)OCc5ccccc5)cnc34)cccc2c1)NCC(=O)OCc1ccccc1
28 | 0.9 µM | – | – | – | – | – | – | COC(=O)c1cnc2c(SSc3cccc4cc(C(=O)OC)cnc34)cccc2c1
29 | < 0.2 µM | > 10 µM | Insoluble | – | 0.9 µM | – | – | O=C(NCc1ccc(F)cc1)c1cnc2c(SSc3cccc4cc(C(=O)NCc5ccc(F)cc5)cnc34)cccc2c1
30 | – | 1.4 µM | Soluble | – | – | – | – | O=C(NCCc1ccco1)c1cnc2c(SSc3cccc4cc(C(=O)NCCc5ccco5)cnc34)cccc2c1
31 | 0.8 µM | > 10 µM | Insoluble | > 100 µM | 3.5 µM | – | – | O=C(NCc1ccc(C(F)(F)F)cc1)c1cnc2c(SSc3cccc4cc(C(=O)NCc5ccc(C(F)(F)F)cc5)cnc34)cccc2c1
32 | – | 1.2 µM | – | 15.3 µM | 1.7 µM | – | – | NC(=O)c1cnc2c(SSc3cccc4cc(C(N)=O)cnc34)cccc2c1
33 | 0.2 µM | > 10 µM | – | 7 µM | 0.5 µM | – | – | O=C(NCc1ccncc1)c1cnc2c(SSc3cccc4cc(C(=O)NCc5ccncc5)cnc34)cccc2c1
34 | > 100 µM | – | – | – | – | – | – | O=C(NCc1ccccc1)c1ccc2cccc(SSc3cccc4ccc(C(=O)NCc5ccccc5)nc34)c2n1
35 | > 100 µM | > 100 µM | – | 35 µM | > 100 µM | – | – | O=C(NCCc1nccs1)c1ccc2c(SSc3cccc4nc(C(=O)NCCc5nccs5)ccc34)cccc2n1
36 | 2.2 µM | – | – | – | – | – | – | O=C(NCc1ccco1)c1ccnc2c(SSc3cccc4c(C(=O)NCc5ccco5)ccnc34)cccc12
37 | 4 µM | > 10 µM | Soluble | > 50 µM | 17 µM | – | – | O=C(NCc1ccccn1)c1cnc2c(SSc3cccc4cc(C(=O)NCc5ccccn5)cnc34)cccc2c1
38 | 1 µM | – | – | – | – | – | – | O=C(NCc1cccs1)c1ccnc2c(SSc3cccc4c(C(=O)NCc5cccs5)ccnc34)cccc12
39 | > 20 µM | – | – | – | – | – | – | O=C(O)c1ccc2cccc(SSc3cccc4ccc(C(=O)O)nc34)c2n1
40 | – | – | – | – | 4.1 µM | – | – | CNC(=O)c1cnc2c(SSc3cccc4cc(C(=O)NC)cnc34)cccc2c1
